The values that follow come from patent US20040039040A1, “Urea derivative and adhesive-molecule inhibitor containing the same as active ingredient” (priority 2000, published 2004).

Data set [1] concerns the target VLA-4-IgG chimera protein (Homo sapiens, UniProt P05556+P13612). The data set can be described thus: Inhibitory effect against binding between CS-1 peptide and VLA-4-IgG chimera protein. The settings on record: binding of VLA-4-IgG chimera protein to immobilized CS-1 peptide-rabbit IgG conjugate; compound preincubated 20 min; 30° C. 3 hours; absorbance at 490 nm. Here is the method: The inhibitory activity of the compound according to the present invention against the adhesion of VLA-4 may be determined by using an adhesion-measuring system in which the adhesion between VLA-4-expressing cells such as Ramos cells or Jurkat cells and fibronectin or fibronectin fragment such as a peptide containing CS-1 sequence (Gly Pro Glu Ile Leu Asp Val Pro Ser Thr) (hereinafter referred to as “CS-1 peptide”), immobilized on an immunoplate is measured. Alternatively, a binding-measuring system in which the adhesion between VLA-4 protein and fibronectin or fibronectin fragment such as CS-1 peptide, immobilized on an immunoplate may be used. In the present invention, it is preferred to evaluate the inhibitory activity of a compound using a binding-measuring system in which adhesion between a chimera protein of VLA-4-immunoglobulin (VLA-4-IgG chimera protein) and CS-1 peptide (Japanese Patent Application No. H9-234544), but the method is not restricted thereto. The “VLA-4-IgG chimera protein” herein means the heterodimer complex of the chimera protein between α4 of VLA-4 and immunoglobulin (hereinafter referred to as “VLAα4-IgG chimera protein”) and a chimera protein between β1 of VLA-4 and immunoglobulin (hereinafter referred to as “VLAβ1-IgG chimera protein”). As the immunoglobulin, although heavy chain or light chain of IgG, IgM or the like may be used, IgG1 heavy chain is used in the present invention. When testing the inhibitory effect of a compound, it is preferred to mix VLA-4-IgG chimera protein and the test compound previously.
In accordance with the teaching of a report (Humphrise, M. J. et al. J.Bio.Chem., 262,6886-6892(1987)), a conjugate between a peptide (Gys Leu His Gly Pro Glu Glu Ile Leu Asp Val Pro Ser Thr) containing CS-1 sequence and rabbit IgG (Sigma) was prepared. This was diluted with phosphate buffer (hereinafter referred to as “PBS(−)” for short), and the obtained solution was placed in the wells of a 96-well immunoplate (NUNC) in an amount of 100 μl/well, followed by leaving to stand the immunoplate at 4° C. for 16 hours to immobilize the conjugate.
The wells were then washed twice with PBS(−), and 1% BSA solution in PBS, which BSA was heated at 80° C. for 10 minutes, was placed in each well in an amount of 300 μl/well. The immunoplate was left to stand at 4° C. for 3 hours, and then the solution in each well was removed by suction.
Each compound and VLA-4-IgG chimera protein (100 μl) were preliminarily reacted at room temperature for 20 minutes, and then the resulting mixture was allowed to react with the CS-1 peptide in each well at 30° C. for 3 hours. Thereafter, non-bound VLA-4-IgG chimera protein was removed by suction, and each well was washed twice with 0.1% BSA-containing TBS buffer (150 mM NaCl, 25 mM Tris-HCl, 1 mM MnCl2, PH7.4). To the bound VLA-4-IgG chimera protein, biotin-labelled anti-human IgG antibody (Vector) as a primary antibody was added, and then avidin-labelled horse radish peroxidase (Sigma) as a secondary antibody was added, thereby allowing the reactions. Then o-phenylenediamine as a substrate was added to color the reaction solution, and the absorbance at 490 nm was measured. From this absorbance, the binding inhibitory activity of each compound was determined.

Sequence of VLA-4-IgG chimera protein (P13612 with tags, fused parts or gaps limits assumed): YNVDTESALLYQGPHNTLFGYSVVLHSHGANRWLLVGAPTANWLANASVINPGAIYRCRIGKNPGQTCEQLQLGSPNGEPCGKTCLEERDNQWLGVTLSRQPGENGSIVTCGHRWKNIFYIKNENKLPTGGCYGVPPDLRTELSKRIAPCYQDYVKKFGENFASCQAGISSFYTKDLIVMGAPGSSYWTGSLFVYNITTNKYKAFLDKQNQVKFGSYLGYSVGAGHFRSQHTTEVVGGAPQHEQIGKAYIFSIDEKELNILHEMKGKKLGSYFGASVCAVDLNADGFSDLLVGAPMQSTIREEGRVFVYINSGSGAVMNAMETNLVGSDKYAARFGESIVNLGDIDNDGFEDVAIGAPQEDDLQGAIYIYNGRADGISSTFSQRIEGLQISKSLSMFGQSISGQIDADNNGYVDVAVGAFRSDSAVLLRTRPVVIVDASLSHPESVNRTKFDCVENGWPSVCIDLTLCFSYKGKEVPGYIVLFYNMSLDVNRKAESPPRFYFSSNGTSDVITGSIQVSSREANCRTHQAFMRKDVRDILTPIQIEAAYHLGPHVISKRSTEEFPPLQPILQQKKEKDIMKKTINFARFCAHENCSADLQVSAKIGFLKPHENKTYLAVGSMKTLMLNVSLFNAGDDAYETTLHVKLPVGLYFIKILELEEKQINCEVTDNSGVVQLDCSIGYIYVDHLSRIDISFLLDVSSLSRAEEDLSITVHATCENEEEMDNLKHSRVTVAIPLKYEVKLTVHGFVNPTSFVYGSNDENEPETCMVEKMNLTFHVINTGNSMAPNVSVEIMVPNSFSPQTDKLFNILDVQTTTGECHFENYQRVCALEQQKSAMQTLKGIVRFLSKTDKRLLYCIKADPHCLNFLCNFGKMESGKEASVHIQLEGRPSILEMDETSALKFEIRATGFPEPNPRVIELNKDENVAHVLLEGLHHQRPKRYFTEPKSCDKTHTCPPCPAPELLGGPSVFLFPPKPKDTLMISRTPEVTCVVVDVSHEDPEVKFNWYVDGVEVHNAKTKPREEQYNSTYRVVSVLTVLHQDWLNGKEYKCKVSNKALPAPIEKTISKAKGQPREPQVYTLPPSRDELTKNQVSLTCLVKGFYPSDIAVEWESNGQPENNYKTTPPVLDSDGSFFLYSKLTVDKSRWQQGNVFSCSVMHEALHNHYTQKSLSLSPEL
Sequence of VLA-4-IgG chimera protein (P05556 with tags, fused parts or gaps limits assumed): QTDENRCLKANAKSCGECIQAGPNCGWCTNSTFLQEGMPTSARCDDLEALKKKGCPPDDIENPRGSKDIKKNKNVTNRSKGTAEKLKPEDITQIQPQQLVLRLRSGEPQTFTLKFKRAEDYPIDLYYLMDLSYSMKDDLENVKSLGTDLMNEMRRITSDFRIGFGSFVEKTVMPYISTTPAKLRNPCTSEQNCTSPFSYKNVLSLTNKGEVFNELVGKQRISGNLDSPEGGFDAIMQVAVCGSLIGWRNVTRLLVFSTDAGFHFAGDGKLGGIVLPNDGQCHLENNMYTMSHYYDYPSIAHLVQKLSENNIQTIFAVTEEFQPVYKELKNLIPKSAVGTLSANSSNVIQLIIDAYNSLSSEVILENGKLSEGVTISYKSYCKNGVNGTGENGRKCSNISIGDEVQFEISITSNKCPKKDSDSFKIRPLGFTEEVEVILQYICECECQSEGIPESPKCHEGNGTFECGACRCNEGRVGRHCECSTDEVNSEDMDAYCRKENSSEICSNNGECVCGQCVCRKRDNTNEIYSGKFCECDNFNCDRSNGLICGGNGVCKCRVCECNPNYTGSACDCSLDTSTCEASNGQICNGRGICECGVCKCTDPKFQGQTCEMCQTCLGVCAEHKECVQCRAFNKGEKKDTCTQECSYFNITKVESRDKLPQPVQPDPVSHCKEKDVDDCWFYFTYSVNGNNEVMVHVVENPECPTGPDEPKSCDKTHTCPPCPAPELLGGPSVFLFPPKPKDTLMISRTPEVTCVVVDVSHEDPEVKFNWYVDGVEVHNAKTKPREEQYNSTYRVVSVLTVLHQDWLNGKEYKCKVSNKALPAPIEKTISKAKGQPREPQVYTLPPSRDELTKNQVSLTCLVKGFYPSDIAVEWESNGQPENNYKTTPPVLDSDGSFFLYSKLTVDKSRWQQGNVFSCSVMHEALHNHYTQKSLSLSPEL

Regarding `O=C(N[C@@H](Cn1ccc(NC(=O)c2c(Cl)cccc2Cl)nc1=O)C(=O)O)NC1(C(=O)Nc2ccccc2)CCCCC1` [Compound 8, 3-(4-((2,6-dichlorophenyl)carbonylamino)-2-oxohydropyrimidinyl)-2-((((N-phenylcarbamoyl)cyclohexyl)amino)carbonylamino)propanoic Acid], the melting point (commonly the temperature, or range, at which the solid turns liquid) was in the range of 193 to 195 °C.

`CS(=O)(=O)N1CC2(CCN(C(=O)N[C@@H](Cn3ccc(NC(=O)c4c(Cl)cccc4Cl)nc3=O)C(=O)O)CC2)c2ccccc21` [Compound 28, 3-(4-((2,6-dichlorophenyl)carbonylamino)-2-oxohydropyrimidinyl)-2-((1-(methylsulfonyl)spiro[indoline-3,4′-piperidin]-10-yl)carbonylamino)propanoic Acid]: the IC50 (usually the point on the concentration scale where inhibition reaches its midpoint) in data set [1] is 3.8 nM.

In the case of `O=C(Nc1ccn(C[C@H](NC(=O)N2CCC(n3c(=O)[nH]c4ccccc43)CC2)C(=O)O)c(=O)n1)c1c(Cl)cccc1Cl` [Compound 32, 3-(4-((2,6-dichlorophenyl)carbonylamino)-2-oxohydropyrimidinyl)-2-((4-(2-oxo-3-azaindolinyl)piperidyl)carbonylamino)propanoic Acid], the IC50 in data set [1] came to 0.97 nM. This IC50 is about 3.9-fold lower than that of the molecule before.

Regarding `O=C(Nc1ccn(C[C@H](NC(=O)N2CCC3(CC2)C(=O)NCN3c2ccccc2)C(=O)O)c(=O)n1)c1c(Cl)cccc1Cl` [Compound 35], in data set [1], the IC50 stood at 2.4 nM.

In data set [1], `CC(=O)NC1(c2ccccc2)CCN(C(=O)N[C@@H](Cn2ccc(NC(=O)c3c(Cl)cccc3Cl)nc2=O)C(=O)O)CC1` [Compound 37] returned an IC50 of 3.5 nM. The IC50 values of the last two molecules are within 1.5-fold of each other.

Consider `O=C(Nc1ccc(C[C@@H](C(=O)O)N2C(=O)NC3(CCCCC3)C2=O)cc1)c1c(Cl)cccc1Cl` [Compound 44], for which the melting point is 250 °C.

`C[C@@H]1CCC[C@H](C)N1C(=O)N[C@@H](Cn1ccc(NC(=O)c2c(Cl)cccc2Cl)nc1=O)C(=O)O` [Compound 50, 3-(4-((2,6-dichlorophenyl)carbonylamino)-2-oxohydropyrimidinyl)-2-((2,6-dimethylpiperidyl)carbonylamino)propanoic Acid] gave a concentration for half-maximal inhibition (IC50) in data set [1] of 4.5 nM.
